Tested on: Human leukemia HL-60 cells endogenously expressing BLT1 and BLT2 receptors
Test: Ca2+ flux assay for LTB4 antagonist assay (HL-60 FLIPR)
Type: cell-based
Conditions: retinoic acid induced HL-60 cells, inhibition of LTB4-induced Ca2+ flux, 30 min preincubation; read-out: LTB4 antagonism (HL-60 FLIPR)
Experimental: Assay of Compounds for Inhibition of LTB4 Activity
Ca^2+Flux Assay for LTB4 Antagonist Assay
Human leukemia HL-60 cells endogenously expressing BLT1 and BLT2 receptors were cultured in RPMI-1640 medium supplemented with 20% fetal bovine serum, 2 mM glutamine, 100 U/ml penicillin and 100 ug/ml streptomycin.
Seventy two hours prior to experiment cells are counted using ViaCount reagent, centrifuged and resuspended at 2.0×10^5 cells/ml density with the complete growth media containing 1 μM Retinoic Acid (Sigma).
On a day of the experiment loading buffer (Calcium-3 Assay Kit, Molecular Devices) was prepared by dissolving the contents of one vial (Express Kit) into 500 ml Hank's Balanced Salt Solution containing 20 mM HEPES and 5 mM probenecid. Equal volume of the loading buffer was mixed with the replacement buffer (Hank's Balanced Salt Solution containing 20 mM HEPES, 0.05% BSA and 5 mM probenecid). Retinoic Acid induced HL-60 cells were counted using ViaCount reagent, centrifuged and resuspended at 2.0×10^6 cells/ml density with the loading buffer/replacement buffer, dispensed into 384 well black/clear microplates (Falcon) (25 μl/well) and placed in a 37° C./5% CO2 incubator for 1 hour.
During the incubation, test compounds were prepared at 6× the desired concentration in HBSS/20 mM HEPES/0.05% BSA as well as LTB4 (Biomol) was prepared at 2.2× concentration in HBSS/20 mM HEPES/0.5% BSA buffer.
After the incubation, both the cell and compound plates were brought to the FLIPR and 5 μl of the diluted compounds were transferred to the cell plates by the FLIPR. Plates were then incubated for 30 min at room temperature. After the ½ hour incubation, plates were returned to the FLIPR and 25 μl of 2.2×LTB4 was added to the cell plates. During the assay, fluorescence readings were taken simultaneously from all 384 wells of the cell plate every 1.5 seconds. Five readings were taken to establish a stable baseline, then 25 μl (LTB4) of sample was rapidly and simultaneously added to each well of the cell plate. The fluorescence was continuously monitored before, during and after sample addition for a total elapsed time of 100 seconds. Responses (increase in peak fluorescence) in each well following agonist addition was determined. The initial fluorescence reading from each well, prior to ligand stimulation, was used a zero baseline value for the data from that well. The responses are expressed as % inhibition of the neutral control (neural control: wells that received buffer plus DMSO but no test compound).

| Structure (SMILES) | IC50 |
| --- | --- |
| CCOc1cc(OCCCCCCc2cccc(OCCCC(=O)O)c2CCC(=O)O)cc(-c2ccc3c(c2)OCO3)c1 [Example 43, 4-[3-[6-(3-Benzo[1,3]dioxol-5-yl-5-ethoxy-phenoxy)-hexyl]-2-(2-carboxy-ethyl)-phenoxy]-butyric acid] | 0.22 nM |
| CC(=O)c1cc(OCCCCCCc2cccc(OCCCC(=O)O)c2CCC(=O)O)cc(-c2ccsc2)c1 [Example 68, 4-[3-[6-(3-Acetyl-5-thiophen-3-yl-phenoxy)-hexyl]-2-(2-carboxy-ethyl)-phenoxy]-butyric acid] | 2 nM |
| CCOc1cc(OCCCCCCc2cccc(OCCCC(=O)O)c2CCC(=O)O)cc(-c2ccc(Cl)cc2)c1 [Example 49, 4-[2-(2-Carboxy-ethyl)-3-[6-(4′-chloro-5-ethoxy-biphenyl-3-yloxy)-hexyl]-phenoxy]-butyric acid] | 6.05 nM |
| COCc1cc(OCCCCCCc2cccc(OCCCC(=O)O)c2CCC(=O)O)cc(-c2ccc(Cl)cc2)c1 [Example 11, 4-{2-(2-Carboxy-ethyl)-3-[6-(4′-chloro-5-methoxymethyl-biphenyl-3-yloxy)-hexyl]-phenoxy}-butyric acid] | 1.37 nM |
| CCOCc1cc(OCCCCCCc2cccc(OCCCC(=O)O)c2CCC(=O)O)cc(-c2ccc(S(C)(=O)=O)cc2)c1 [Example 29, 4-[2-(2-Carboxy-ethyl)-3-[6-(5-ethoxymethyl-4′-methanesulfonyl-biphenyl-3-yloxy)-hexyl]-phenoxy]-butyric acid] | 16 nM |
| CCOc1cc(OCCCCCCc2cccc(OCCCC(=O)O)c2CCC(=O)O)cc(-c2cncnc2)c1 [Example 53, 4-[2-(2-Carboxy-ethyl)-3-[6-(3-ethoxy-5-pyrimidin-5-yl-phenoxy)-hexyl]-phenoxy]-butyric acid] | 79.3 nM |
| CN(C)Cc1cc(OCCCCCCc2cccc(OCCCC(=O)O)c2CCC(=O)O)cc(-c2ccccc2)c1 [Example 32, 4-{2-(2-Carboxy-ethyl)-3-[6-(5-dimethylaminomethyl-biphenyl-3-yloxy)-hexyl]-phenoxy}-butyric acid] | 0.1 nM |
| CCOCc1cc(OCCCCCCc2cccc(OCCCC(=O)O)c2CCC(=O)O)cc(-c2ccc(Cl)cc2)c1 [Example 28, 4-{2-(2-Carboxy-ethyl)-3-[6-(5-ethoxymethyl-4′-chloro-biphenyl-3-yloxy)-hexyl]-phenoxy}-butyric acid] | 6.51 nM |
| CCOc1cc(OCCCCCCc2cccc(OCCCC(=O)O)c2CCC(=O)O)cc(-c2ccc3cc[nH]c3c2)c1 [Example 55, 4-[2-(2-Carboxy-ethyl)-3-{6-[3-ethoxy-5-(1H-indol-6-yl)-phenoxy]-hexyl}-phenoxy]-butyric acid] | 6.69 nM |
| O=C(O)CCCOc1cccc(CCCCCCOc2cc(C(=O)C3CCCC3)cc(-c3ccc4c(c3)OCO4)c2)c1CCC(=O)O [Example 73, 4-[3-[6-(3-Benzo[1,3]dioxol-5-yl-5-cyclopentanecarbonyl-phenoxy)-hexyl]-2-(2-carboxy-ethyl)-phenoxy]-butyric acid] | 0.77 nM |
| COCc1cc(OCCCCCCc2cccc(OCCCC(=O)O)c2CCC(=O)O)cc(-c2ccccc2)c1 [Example 9, 4-{2-(2-Carboxy-ethyl)-3-[6-(5-methoxymethyl-biphenyl-3-yloxy)-hexyl]-phenoxy}-butyric acid] | 1.93 nM |
| COCc1cc(OCCCCCCc2cccc(OCCCC(=O)O)c2CCC(=O)O)cc(-c2ccc(C(F)(F)F)cc2)c1 [Example 17, 4-{2-(2-Carboxy-ethyl)-3-[6-(5-methoxymethyl-4′-trifluoromethyl-biphenyl-3-yloxy)-hexyl]-phenoxy}-butyric acid] | 1.62 nM |
| O=C(O)CCCOc1cccc(CCCCCCOc2cc(C(=O)C3CC3)cc(-c3ccc4c(c3)OCO4)c2)c1CCC(=O)O [Example 72, 4-[3-[6-(3-Benzo[1,3]dioxol-5-yl-5-cyclopropanecarbonyl-phenoxy)-hexyl]-2-(2-carboxy-ethyl)-phenoxy]-butyric acid] | 0.16 nM |
| CN(C)Cc1cc(OCCCCCCc2cccc(OCCCC(=O)O)c2CCC(=O)O)cc(-c2ccc3c(c2)OCO3)c1 [Example 30, 4-[3-[6-(3-Benzo[1,3]dioxol-5-yl-5-dimethylaminomethyl-phenoxy)-hexyl]-2-(2-carboxy-ethyl)-phenoxy]-butyric acid] | 0.1 nM |
| CC(=O)c1cc(OCCCCCCc2cccc(OCCCC(=O)O)c2CCC(=O)O)cc(-c2ccc3c(c2)OC(F)(F)O3)c1 [Example 69, 4-[3-{6-[3-Acetyl-5-(2,2-difluoro-benzo[1,3]dioxol-5-yl)-phenoxy]-hexyl}-2-(2-carboxy-ethyl)-phenoxy]-butyric acid] | 0.9 nM |
| CC(=O)c1cc(OCCCCCCc2cccc(OCCCC(=O)O)c2CCC(=O)O)cc(-c2ccccc2)c1 [Example 66, 4-[3-[6-(5-Acetyl-biphenyl-3-yloxy)-hexyl]-2-(2-carboxy-ethyl)-phenoxy]-butyric acid] | 3.33 nM |
| COCc1cc(OCCCCCCc2cccc(OCCCC(=O)O)c2CCC(=O)O)cc(-c2cscc2C)c1 [Example 13, 4-(2-(2-Carboxy-ethyl)-3-{6-[3-methoxymethyl-5-(4-methyl-thiophen-3-yl)-phenoxy]-hexyl}-phenoxy)-butyric acid] | 140 nM |
| CCOc1cc(OCCCCCCc2cccc(OCCCC(=O)O)c2CCC(=O)O)cc(-c2ccc3scnc3c2)c1 [Example 56, 4-[3-{6-[3-Benzothiazol-5-yl-5-ethoxy-phenoxy]-hexyl}-2-(2-carboxy-ethyl)-phenoxy]-butyric acid] | 0.32 nM |
| N#CCc1cc(OCCCCCCc2cccc(OCCCC(=O)O)c2CCC(=O)O)cc(-c2ccccc2)c1 [Example 42, 4-{2-(2-Carboxy-ethyl)-3-[6-(5-cyanomethyl-biphenyl-3-yloxy)-hexyl]-phenoxy}-butyric acid] | 23 nM |
| CCOc1cc(OCCCCCCc2cccc(OCCCC(=O)O)c2CCC(=O)O)cc(-c2ccc3c(c2)OCCO3)c1 [Example 46, 4-[2-(2-Carboxy-ethyl)-3-{6-[3-(2,3-dihydro-benzo[1,4]dioxin-6-yl)-5-ethoxy-phenoxy]-hexyl}-phenoxy]-butyric acid] | 1.11 nM |
| CCC(=O)c1cc(OCCCCCCc2cccc(OCCCC(=O)O)c2CCC(=O)O)cc(-c2ccc3c(c2)OCO3)c1 [Example 71, 4-[3-[6-(3-Benzo[1,3]dioxol-5-yl-5-propionyl-phenoxy)-hexyl]-2-(2-carboxy-ethyl)-phenoxy]-butyric acid] | 0.4 nM |
| CN(C)Cc1cc(OCCCCCCc2cccc(OCCCC(=O)O)c2CCC(=O)O)cc(-c2cccc(F)c2)c1 [Example 36, 4-{2-(2-Carboxy-ethyl)-3-[6-(5-dimethylaminomethyl-3′-fluoro-biphenyl-3-yloxy)-hexyl]-phenoxy}-butyric acid] | 0.14 nM |
| CCOc1cc(OCCCCCCc2cccc(OCCCC(=O)O)c2CCC(=O)O)cc(-c2ccsc2)c1 [Example 45, 4-[2-(2-Carboxy-ethyl)-3-[6-(3-ethoxy-5-thiophen-3-yl-phenoxy)-hexyl]-phenoxy]-butyric acid] | 0.4 nM |
| CCOc1cc(OCCCCCCc2cccc(OCCCC(=O)O)c2CCC(=O)O)cc(-c2ccc(F)cc2)c1 [Example 48] | 5.2 nM |
| CN(C)Cc1cc(OCCCCCCc2cccc(OCCCC(=O)O)c2CCC(=O)O)cc(-c2cccc(S(C)(=O)=O)c2)c1 [Example 39, 4-{2-(2-Carboxy-ethyl)-3-[6-(5-dimethylaminomethyl-3′-methanesulfonyl-biphenyl-3-yloxy)-hexyl]-phenoxy}-butyric acid] | 70.8 nM |
| CC(=O)c1cc(OCCCCCCc2cccc(OCCCC(=O)O)c2CCC(=O)O)cc(-c2ccc3c(c2)OCCO3)c1 [Example 65] | 2.07 nM |
| CS(=O)(=O)c1ccc(-c2cc(CO)cc(OCCCCCCc3cccc(OCCCC(=O)O)c3CCC(=O)O)c2)cc1 [Example 7, 4-[2-(2-Carboxy-ethyl)-3-[6-(5-hydroxymethyl-4′-methanesulfonyl-biphenyl-3-yloxy)-hexyl]-phenoxy]-butyric acid] | 83.2 nM |
| CN(C)Cc1cc(OCCCCCCc2cccc(OCCCC(=O)O)c2CCC(=O)O)cc(-c2ccncc2)c1 [Example 40, 4-{2-(2-Carboxy-ethyl)-3-[6-(3-dimethylaminomethyl-5-pyridin-4-yl-phenoxy)-hexyl]-phenoxy}-butyric acid] | 0.42 nM |
| O=C(O)CCCOc1cccc(CCCCCCOc2cc(CO)cc(-c3ccc4c(c3)OCO4)c2)c1CCC(=O)O [Example 1, 4-[3-[6-(3-Benzo[1,3]dioxol-5-yl-5-hydroxymethyl-phenoxy)-hexyl]-2-(2-carboxy-ethyl)-phenoxy]-butyric acid] | 3.1 nM |
